Measured values reported in patent US9340500B2, “Aromatic heterocyclic derivative having TRPV4-inhibiting activity” (SHIONOGI & CO., LTD., priority 2011, dated 2016).

Experiments:
[1] = Metabolism stability test; type: in vitro ADME; details: human liver microsomes, 30 minutes
Protocol: Using a commercially available pooled human hepatic microsomes, a test compound was reacted for a constant time, a remaining rate was calculated by comparing a reacted sample and an unreacted sample, thereby, a degree of metabolism in liver was assessed.
A reaction was performed (oxidative reaction) at 37° C. for 0 minute or 30 minutes in the presence of 1 mmol/L NADPH in 0.2 mL of a buffer (50 mmol/L Tris-HCl pH 7.4, 150 mmol/L potassium chloride, 10 mmol/L magnesium chloride) containing 0.5 mg protein/mL of human liver microsomes. After the reaction, 50 μL of the reaction mixture was added to 100 μL of a methanol/acetonitrile=1/1 (v/v), mixed and centrifuged at 3000 rpm for 15 minutes. The test compound in the supernatant was quantified by LC/MS/MS, and a remaining amount of the test compound after the reaction was calculated, letting a compound amount at 0 minute reaction time to be 100%. Hydrolysis reaction was performed in the absence of NADPH and glucuronidation reaction was in the presence of 5 mM UDP-glucuronic acid in place of NADPH, followed by similar operations.

[2] = BA test (oral absorbability); type: in vivo; details: plasma; Mouse, oral administration 1 mg/kg
Protocol: An experimental material and a method for examining oral absorbability
(1) Animals used rats or mice were used.
(2) Breeding condition: chow and sterilized tap water were allowed to be taken in freely.
(3) Setting of a dosage and grouping: a predetermined dosage was administered orally or intravenously. Groups were formed as shown below. (A dosage varied depending on each compound) Oral administration 1-30 mg/kg (n=2 to 3) Intravenous administration 0.5-10 mg/kg (n=2 to 3) (4) Preparation of administered liquid: In oral administration, a solution or suspension was administered. In intravenous administration, after solubilization, the administration was performed. (5) Method of Administration: In oral administration, compulsory administration to the stomach was conducted using an oral probe.
In intravenous administration, administration from the caudal vein was conducted using a syringe with an injection needle.
(6) Evaluation item: Blood was chronologically collected, and then the drug concentration in blood plasma was measured using a LC/MS/MS.
(7) Statistical analysis: With regard to a shift in plasma concentration, the plasma concentration-time area under the curve (AUC) was calculated using a nonlinear least-squares program WinNonlin®. Bioavailability (BA) was calculated from the AUCs of the oral administration group and the intravenous administration group, respectively. […]

human TRPV4 [3] = biological target: T1, human TRPV4 (Homo sapiens (Human), UniProt Q9HBA0); assay: Test Example 3: measurement of TRPV4 inhibitory activity (Fluo-3, FDSS 3000, 4α-PDD); type: cell-based; details: hTRPV4/CHO cells, calculated from IC50 and 4α-PDD EC50
Procedure, shortened: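 Fluo-3-loaded CHO-K1 cells stably expressing TRPV4 in HEPES/probenecid Hanks buffer pH 7.4; compound added, then 4α-PDD, Ca2+ fluorescence (Ex 480/Em 540 nm) read 8 min. Max-Min normalized to 10 μM Ruthenium Red (100%) and vehicle; IC50 from 10-point 3-fold series converted to Ki using 4α-PDD EC50 and concentration.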

Solubility test = type: physicochemical; details: artificial intestinal juice (phosphate buffer) with 1% DMSO, fassgf or other biorelevant, kinetic from dmso stock, artificial intestinal juice pH 6.8, 16 hours at 25° C.
Protocol: The solubility of each compound is determined under 1% DMSO addition conditions. A 10 mmol/L solution of the compound is prepared with DMSO, and 6 μL of the compound solution is added to 594 μL of an artificial intestinal juice (water and 118 mL of 0.2 mol/L NaOH reagent are added to 250 mL of 0.2 mol/L potassium dihydrogen phosphate reagent to reach 1000 mL) with a pH of 6.8. The mixture is left standing for 16 hours at 25° C., and the mixture is vacuum-filtered. The filtrate is two-fold diluted with methanol/water=1/1, and the compound concentration in the filtrate is measured with HPLC or LC/MS/MS by the absolute calibration method.

human TRPV4 [4] = biological target: T1, human TRPV4; assay: Test Example 2: measurement of TRPV4 inhibitory activity (Fluo 3-AM, FLIPR, 4α-PDD 600 nmol/L); type: cell-based; details: hTRPV4/CHO cells
Protocol: For each compound, TRPV4 inhibitory activity was measured using cells.
(1) The TRPV4 inhibitory activity was measured using CHO-K1 cells stably expressing human TRPV4 (hTRPV4/CHO cells).
(2) In the day before the experimental day, frozen cell were thawed and washed with the culture medium (MEM-α, 10% FBS, 4 mmol/L L-Glutamine, 50 unit Penicillin, 50 μg/mL Streptomycin). Then cells were suspended in the culture medium.
(3) The 384-well plates which hTRPV4/CHO cells were seeded at densities of 4000 cells/well in the culture medium and cultured in a CO2 incubator in the presence of 5% CO2 at 37° C. for overnight was used as assay plates. […]
(7) Diluted compound solution was dispensed to each well in the compound plate, and mixed with built-in Pipette and Mixer of the Fluorescence analysis system FLIPR 384 (Molecular devices). […]
(9) The fluorescent intensity was measured with FLIPR TETRA system for 7 min from the point of time addition the compound solution, at Ex 488 nm, Em 510-570 nm wavelength.
TRPV4 inhibitory activity (IC50 value) of a compound was evaluated according to the following procedure.
(10) In the presence of the compound, the difference between maximal and minimal of fluorescent intensity value for 3 min from just before addition of 4α-PDD solution was calculated, and it was referred as Max-Min value. […]

human TRPV4 [5] = biological target: T1, human TRPV4; assay: Test Example 1: measurement of TRPV4 inhibitory activity (Fluo 4-AM, FLIPR TETRA, 4α-PDD 1 μmol/L); type: cell-based; details: hTRPV4/CHO cells, 4α-PDD 1 μmol/L
Procedure, shortened: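 Calcium influx evoked by 4α-PDD (final 1 μmol/L) in hTRPV4/CHO-K1 cells loaded with Fluo-4 AM (final 3 μmol/L), pH 7.4 HEPES-Hanks with probenecid; compounds added 5 min earlier. Inhibition relative to 20 μM Ruthenium Red gave IC50 (logistic), converted to Ki via agonist EC50.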

T1 sequence (Q9HBA0 whole entry): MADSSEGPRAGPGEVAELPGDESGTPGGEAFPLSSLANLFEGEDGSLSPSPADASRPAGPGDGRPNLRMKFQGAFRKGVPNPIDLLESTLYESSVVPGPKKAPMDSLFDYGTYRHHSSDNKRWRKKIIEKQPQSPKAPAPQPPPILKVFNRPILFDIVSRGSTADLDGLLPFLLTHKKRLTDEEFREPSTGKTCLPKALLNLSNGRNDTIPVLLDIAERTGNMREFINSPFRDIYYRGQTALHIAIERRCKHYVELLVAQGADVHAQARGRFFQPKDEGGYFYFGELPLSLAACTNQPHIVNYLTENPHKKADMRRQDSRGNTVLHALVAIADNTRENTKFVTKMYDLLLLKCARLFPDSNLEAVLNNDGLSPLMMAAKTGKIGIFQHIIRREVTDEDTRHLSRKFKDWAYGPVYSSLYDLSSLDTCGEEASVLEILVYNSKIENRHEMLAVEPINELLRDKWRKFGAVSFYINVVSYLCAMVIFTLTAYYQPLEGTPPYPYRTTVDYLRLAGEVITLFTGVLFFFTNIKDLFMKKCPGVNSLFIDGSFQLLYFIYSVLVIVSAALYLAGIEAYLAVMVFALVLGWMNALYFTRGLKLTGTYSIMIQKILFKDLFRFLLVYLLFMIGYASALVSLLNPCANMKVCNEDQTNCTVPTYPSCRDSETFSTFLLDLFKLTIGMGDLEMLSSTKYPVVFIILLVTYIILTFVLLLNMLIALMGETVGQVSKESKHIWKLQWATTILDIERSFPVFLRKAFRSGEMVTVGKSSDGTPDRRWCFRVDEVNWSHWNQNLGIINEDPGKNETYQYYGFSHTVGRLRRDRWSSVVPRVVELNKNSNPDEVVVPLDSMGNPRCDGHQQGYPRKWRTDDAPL

Compound	remaining rate (metabolism stability) ([1]; compound concentration 2 μmol/L)	bioavailability [2]	Ki (human TRPV4 [3])	solubility at 16 h (Solubility test)	remaining rate (metabolism stability) ([1]; compound concentration 0.5 μmol/L)	IC50 (human TRPV4 [4])	IC50 (human TRPV4 [5])
Cc1c(C(=O)Nc2cccc(C(F)(F)F)c2)cc(-c2ccccc2)n1CCCN1CCNCC1 [Compound I-014]	66.3%	15.2%	355 nM	> 50 µM			
CNCCCn1c(-c2ccccc2)cc(C(=O)Nc2cccc(C(F)(F)F)c2)c1C [Compound I-031]		24.4%	160 nM	> 50 µM	92.2%		
Cc1c(C(=O)Nc2cccc(C(F)(F)F)c2)cc(-c2ccccc2)n1CCSCc1c(F)cccc1Cl [Compound I-084]						1600 nM	1200 nM
